Data from ChEMBL document CHEMBL1156024, “The first Hes1 dimer inhibitors from natural products” (Bioorg Med Chem Lett, 2009).
pIC50: −log10 of the molar value. Activity calls are given as the source filed them. No cut-off for these calls is given here.

Columns and labels:
[1] = biological target: T1, Transcription factor HES-1 (Mus musculus, UniProt P35428); assay: Inhibition of Cy3-labeled mouse recombinant Hes1 (3-281) dimer formation expressed in Escherichia coli by microplate-based assay
T1 sequence (P35428 whole entry): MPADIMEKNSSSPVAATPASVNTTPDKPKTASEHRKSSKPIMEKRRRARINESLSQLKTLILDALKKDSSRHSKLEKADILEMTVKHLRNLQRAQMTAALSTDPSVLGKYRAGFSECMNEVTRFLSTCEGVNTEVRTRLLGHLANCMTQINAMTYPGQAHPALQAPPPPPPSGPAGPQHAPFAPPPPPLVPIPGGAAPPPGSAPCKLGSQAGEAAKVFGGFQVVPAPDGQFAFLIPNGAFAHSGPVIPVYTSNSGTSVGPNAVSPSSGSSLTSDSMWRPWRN

[2] = biological target: T2, Transcription factor HES-1 (Mus musculus) (UniProt P35428); assay: Inhibition of Cy3-labeled mouse recombinant Hes1 (3-281) dimer formation expressed in Escherichia coli at 100 uM by microplate-based assay
T2 sequence (whole entry): T1 sequence (P35428 whole entry)

[3] = biological target: T2, Transcription factor HES-1 (Mus musculus); conditions: C3H 10T1/2, 50 uM
Description: Inhibition of mouse Hes1-mediated suppression of basic helix-loop-helix activator genes in C3H10T1/2 cells at 50 uM by luciferase transactivation assay

pIC50 [1] | inhibition [2] | inhibition [3] [%] | SMILES
5.11 |  |  | C/C=C1/[C@H]2OC=C(C(=O)O)[C@H]1CC(=O)OC[C@H](c1ccc(O)c(O)c1)OC[C@H]1O[C@@H](O2)[C@H](O)[C@@H](O)[C@@H]1O
 | inactive |  | COC(=O)c1[nH]c(C(=O)O)c(-c2c[nH]c3ccccc23)c1-c1c[nH]c2ccccc12
 | inactive |  | COC(=O)c1[nH]c(C(=O)OC)c(-c2c[nH]c3ccccc23)c1-c1c[nH]c2ccccc12
5.39 |  | 60 | CCCC(=O)/C=C/C1=C(O)C(=O)c2cc(O)c(O)cc2C1=O [LINDBLADIONE]
5.22 |  | 60 | O=C(O)c1[nH]c(C(=O)O)c(-c2c[nH]c3ccccc23)c1-c1c[nH]c2ccccc12 [LYCOGALIC ACID A]
4.78 |  |  | COC(=O)c1[nH]c(C(=O)OC)c(-c2c[nH]c3ccc(O)cc23)c1-c1c[nH]c2ccccc12 [LYCOGARUBIN B]
4.32 |  |  | COc1cc([C@H]2c3c(cc(OC)c(O)c3OC)C[C@@H](CO)[C@@H]2CO[C@@H]2OC[C@@H](O)[C@H](O)[C@H]2O)cc(OC)c1O [LYONISIDE]
5.02 |  |  | COc1cc([C@@H]2c3c(cc(OC)c(O)c3OC)C[C@H](CO)[C@H]2CO[C@@H]2OC[C@@H](O)[C@H](O)[C@H]2O)cc(OC)c1O [NUDIPOSIDE]

SMILES | pIC50 [1] | inhibition [2] | inhibition [3] [%]
O=C1NCc2c1c1c3ccccc3[nH]c1c1[nH]c3ccccc3c21 |  | inactive | 
